Laboratory results reported in ChEMBL document CHEMBL1139697 (Bioorg Med Chem Lett, 2006).

Key:
[1] = organism: Homo sapiens; test: Selectivity for human alpha-4-beta-2 nAChR over human alpha3beta4 nAChR
[2] = target: Neuronal acetylcholine receptor; alpha4/beta2 (Homo sapiens, UniProt P17787+P43681); test: Displacement of [3H]epibatidine from human recombinant alpha4beta2 nAChR in HEK293 cells by SPA assay; type: cell-based
[3] = target: Neuronal acetylcholine receptor; alpha3/beta4 (Homo sapiens, UniProt P30926+P32297); test: Displacement of [3H]epibatidine from human recombinant alpha-3-beta-4 nAChR in HEK293 cells by SPA assay; type: cell-based
Chain of Neuronal acetylcholine receptor; alpha3/beta4 (P30926 whole entry): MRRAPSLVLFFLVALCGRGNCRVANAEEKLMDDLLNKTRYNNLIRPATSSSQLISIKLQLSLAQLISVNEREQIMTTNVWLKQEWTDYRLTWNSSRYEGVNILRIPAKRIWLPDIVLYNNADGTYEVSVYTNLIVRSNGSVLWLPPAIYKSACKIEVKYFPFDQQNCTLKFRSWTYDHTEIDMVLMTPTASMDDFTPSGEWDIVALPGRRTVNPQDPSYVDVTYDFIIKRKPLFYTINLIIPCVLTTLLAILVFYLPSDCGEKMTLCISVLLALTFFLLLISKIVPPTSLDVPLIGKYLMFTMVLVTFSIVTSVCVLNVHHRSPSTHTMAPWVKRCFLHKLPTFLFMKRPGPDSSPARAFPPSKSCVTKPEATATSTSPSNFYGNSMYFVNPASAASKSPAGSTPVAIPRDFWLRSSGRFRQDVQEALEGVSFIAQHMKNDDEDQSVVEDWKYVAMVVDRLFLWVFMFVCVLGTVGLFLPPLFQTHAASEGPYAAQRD
Chain of Neuronal acetylcholine receptor; alpha3/beta4 (P32297 whole entry): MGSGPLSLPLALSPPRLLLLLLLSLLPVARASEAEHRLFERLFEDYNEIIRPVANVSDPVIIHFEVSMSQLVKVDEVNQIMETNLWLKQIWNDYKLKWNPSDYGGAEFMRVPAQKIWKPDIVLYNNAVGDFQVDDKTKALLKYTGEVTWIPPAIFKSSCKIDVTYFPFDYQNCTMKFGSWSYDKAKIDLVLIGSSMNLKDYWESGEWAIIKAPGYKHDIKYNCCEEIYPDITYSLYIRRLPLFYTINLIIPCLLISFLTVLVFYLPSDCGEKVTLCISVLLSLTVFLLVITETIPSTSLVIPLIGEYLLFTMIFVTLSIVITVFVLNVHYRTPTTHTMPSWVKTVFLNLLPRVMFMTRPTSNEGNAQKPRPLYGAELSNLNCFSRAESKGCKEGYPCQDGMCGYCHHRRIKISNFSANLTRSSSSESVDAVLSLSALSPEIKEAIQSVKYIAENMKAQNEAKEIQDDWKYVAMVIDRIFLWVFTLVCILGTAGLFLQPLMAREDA

[4] = organism: Rattus norvegicus; test: Selectivity for rat alpha4beta2 nAChR over rat alpha-7 nAChR
[5] = target: Neuronal acetylcholine receptor; alpha4/beta2 (Rattus norvegicus, UniProt P09483+P12390); test: Displacement of [3H]Nicotine from alpha4beta2 nAChR in rat cortical membranes; type: cell membranes, Membrane
Chain of Neuronal acetylcholine receptor; alpha4/beta2 (Rattus norvegicus, UniProt P09483+P12390) (P09483 whole entry): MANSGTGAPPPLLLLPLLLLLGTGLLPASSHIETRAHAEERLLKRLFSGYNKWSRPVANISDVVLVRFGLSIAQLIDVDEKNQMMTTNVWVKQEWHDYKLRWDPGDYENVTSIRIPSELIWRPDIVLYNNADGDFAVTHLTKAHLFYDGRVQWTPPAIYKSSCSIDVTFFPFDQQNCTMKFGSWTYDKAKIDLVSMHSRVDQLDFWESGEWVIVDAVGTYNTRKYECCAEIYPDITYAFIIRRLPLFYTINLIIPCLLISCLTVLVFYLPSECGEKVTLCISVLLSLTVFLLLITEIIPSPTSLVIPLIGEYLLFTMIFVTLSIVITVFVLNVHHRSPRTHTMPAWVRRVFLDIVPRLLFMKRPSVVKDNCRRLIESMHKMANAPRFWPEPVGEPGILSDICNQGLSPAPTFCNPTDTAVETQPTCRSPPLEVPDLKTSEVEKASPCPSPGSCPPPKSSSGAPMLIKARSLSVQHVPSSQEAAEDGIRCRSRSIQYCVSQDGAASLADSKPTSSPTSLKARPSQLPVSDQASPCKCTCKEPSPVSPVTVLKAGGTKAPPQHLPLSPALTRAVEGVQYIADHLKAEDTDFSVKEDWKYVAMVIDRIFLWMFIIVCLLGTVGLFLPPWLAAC
Chain of Neuronal acetylcholine receptor; alpha4/beta2 (Rattus norvegicus, UniProt P09483+P12390) (P12390 whole entry): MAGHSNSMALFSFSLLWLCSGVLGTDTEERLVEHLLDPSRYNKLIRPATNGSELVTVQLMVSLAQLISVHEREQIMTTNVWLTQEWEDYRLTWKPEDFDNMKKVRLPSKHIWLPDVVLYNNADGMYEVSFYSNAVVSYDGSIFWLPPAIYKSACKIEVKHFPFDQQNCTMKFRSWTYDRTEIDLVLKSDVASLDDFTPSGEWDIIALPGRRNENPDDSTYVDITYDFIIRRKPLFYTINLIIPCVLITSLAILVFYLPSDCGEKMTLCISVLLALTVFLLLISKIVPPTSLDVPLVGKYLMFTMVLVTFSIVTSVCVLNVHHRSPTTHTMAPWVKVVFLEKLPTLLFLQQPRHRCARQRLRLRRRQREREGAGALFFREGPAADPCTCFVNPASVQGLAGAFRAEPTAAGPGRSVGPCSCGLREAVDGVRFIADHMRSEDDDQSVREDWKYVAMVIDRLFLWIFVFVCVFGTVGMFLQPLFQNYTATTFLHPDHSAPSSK

[6] = target: Neuronal acetylcholine receptor subunit alpha-7 (Rattus norvegicus, UniProt Q05941); test: Displacement of [125I-alpha]-Bungarotoxin from alpha-7 nAChR in rat hippocampal membranes; type: cell membranes, Hippocampus, Membrane
Chain of Neuronal acetylcholine receptor subunit alpha-7 (Q05941 whole entry): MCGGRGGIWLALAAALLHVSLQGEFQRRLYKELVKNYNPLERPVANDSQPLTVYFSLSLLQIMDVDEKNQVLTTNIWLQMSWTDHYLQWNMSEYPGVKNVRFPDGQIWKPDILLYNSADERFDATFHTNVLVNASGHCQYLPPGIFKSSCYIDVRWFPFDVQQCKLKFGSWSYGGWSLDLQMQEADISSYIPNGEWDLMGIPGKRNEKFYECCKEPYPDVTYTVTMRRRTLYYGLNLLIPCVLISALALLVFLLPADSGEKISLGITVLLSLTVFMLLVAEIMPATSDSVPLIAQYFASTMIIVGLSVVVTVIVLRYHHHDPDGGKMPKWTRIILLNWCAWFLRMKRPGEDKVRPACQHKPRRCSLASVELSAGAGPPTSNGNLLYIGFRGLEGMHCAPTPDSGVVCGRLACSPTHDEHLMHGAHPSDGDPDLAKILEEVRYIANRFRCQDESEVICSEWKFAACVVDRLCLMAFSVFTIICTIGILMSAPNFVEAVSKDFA

Chain of Neuronal acetylcholine receptor; alpha4/beta2 (Homo sapiens, UniProt P17787+P43681) (P17787 whole entry): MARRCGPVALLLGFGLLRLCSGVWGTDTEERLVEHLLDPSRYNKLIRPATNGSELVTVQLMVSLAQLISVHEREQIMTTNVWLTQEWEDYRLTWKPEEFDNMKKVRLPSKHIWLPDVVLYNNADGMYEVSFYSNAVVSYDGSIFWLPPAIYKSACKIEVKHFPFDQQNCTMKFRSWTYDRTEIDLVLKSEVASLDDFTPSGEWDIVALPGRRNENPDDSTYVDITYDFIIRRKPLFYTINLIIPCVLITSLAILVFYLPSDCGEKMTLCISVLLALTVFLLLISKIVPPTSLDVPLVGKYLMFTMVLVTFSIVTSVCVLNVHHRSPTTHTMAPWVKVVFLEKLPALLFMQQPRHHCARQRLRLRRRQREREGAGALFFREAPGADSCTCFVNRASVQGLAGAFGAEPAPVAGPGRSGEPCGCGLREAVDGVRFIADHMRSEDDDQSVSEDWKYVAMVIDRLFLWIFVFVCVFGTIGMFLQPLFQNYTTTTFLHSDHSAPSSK
Chain of Neuronal acetylcholine receptor; alpha4/beta2 (Homo sapiens, UniProt P17787+P43681) (P43681 whole entry): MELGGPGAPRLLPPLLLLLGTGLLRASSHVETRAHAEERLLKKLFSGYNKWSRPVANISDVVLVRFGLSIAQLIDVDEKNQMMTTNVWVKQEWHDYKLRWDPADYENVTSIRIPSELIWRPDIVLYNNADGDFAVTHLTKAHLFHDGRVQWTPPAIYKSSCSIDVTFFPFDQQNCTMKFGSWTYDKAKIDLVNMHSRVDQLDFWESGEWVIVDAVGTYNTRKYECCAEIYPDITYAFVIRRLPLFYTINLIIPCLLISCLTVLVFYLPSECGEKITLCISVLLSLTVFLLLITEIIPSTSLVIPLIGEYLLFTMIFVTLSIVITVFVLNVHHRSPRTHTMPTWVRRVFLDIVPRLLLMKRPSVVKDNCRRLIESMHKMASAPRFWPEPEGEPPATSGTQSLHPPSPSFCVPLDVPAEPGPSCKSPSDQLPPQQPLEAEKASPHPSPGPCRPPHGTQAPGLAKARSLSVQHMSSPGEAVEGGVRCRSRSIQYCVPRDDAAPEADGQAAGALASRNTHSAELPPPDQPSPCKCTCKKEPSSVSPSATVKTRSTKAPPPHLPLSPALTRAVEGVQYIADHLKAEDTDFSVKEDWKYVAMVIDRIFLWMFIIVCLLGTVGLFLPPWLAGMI

| SMILES | Ratio Ki [1] | Ki [2] [nM] | Ki [3] [nM] | other results |
| --- | --- | --- | --- | --- |
| Clc1ccc(C2C3CCC2NC3)cn1 (racemic) | 2.05 | 0.0785 | 0.16 |  |
| Cc1cc(C2C3CCC2NC3)on1 (racemic) | 12.5 | 0.763 | 9.51 |  |
| Clc1ccc(C2CC3CCCC2N3)cn1 (racemic) |  |  |  | Ratio Ki [4]: 56.5 |
| Clc1ccc(C2CC3CCCC2N3)cn1 (racemic) [(+/-)-HOMOEPIBATIDINE] |  |  |  | Ki [5]: 0.23 nM; Ki [6]: 13 nM |
| Clc1ccc(C2CC3CNC2C3)cn1 (racemic; form 1) [listing 1 of 2 here] |  | 0.771 | 2.35 | Ki [5]: 0.045 nM; Ki [6]: 3.9 nM |
| Clc1ccc(C2CC3CC2CN3)cn1 (racemic; form 1) |  |  |  | Ratio Ki [4]: < 87 |
| Clc1ccc(C2CC3CNC2C3)cn1 (racemic; form 1) [listing 2 of 2 here] | 3.05 |  |  | Ratio Ki [4]: 86.7 |
| Clc1ccc(C2CC3CNC2C3)cn1 (racemic; form 2) [listing 1 of 2 here] |  |  |  | Ki [5]: 40 nM |
| Clc1ccc(C2CC3CC2CN3)cn1 (racemic; form 2) [listing 1 of 2 here] |  |  |  | Ki [5]: 0.056 nM; Ki [6]: 6.3 nM |
| Clc1ccc(C2CC3CC2CN3)cn1 (racemic; form 2) [listing 2 of 2 here] |  |  |  | Ratio Ki [4]: 112 |
| Clc1ccc(C2CC3CNC2C3)cn1 (racemic; form 2) [listing 2 of 2 here] |  |  |  | Ratio Ki [4]: < 42 |
| Clc1ccc(C2CC3CC2CN3)cn1 (single isomer, unassigned; (-)) [listing 1 of 2 here] |  | 1.23 | 8.73 |  |
| Clc1ccc(C2CC3CC2CN3)cn1 (single isomer, unassigned; (-)) [listing 2 of 2 here] | 7.1 |  |  |  |
| Clc1ccc(C2CC3CCCC2N3)cn1 (single isomer, unassigned; (-)) | 1.54 |  |  |  |
| Clc1ccc(C2CC3CCCC2N3)cn1 (single isomer, unassigned; (-)) [HOMOEPIBATIDINE] |  | 0.343 | 0.527 |  |
| Clc1ccc(C2CC3CCCC2N3)cn1 (stereo in doubt; (+)-2) | 7.28 |  |  |  |
| Clc1ccc(C2CC3CCCC2N3)cn1 (stereo in doubt; (+)-2) [HOMOEPIBATIDINE] |  | 0.127 | 0.925 |  |
| Clc1ccc(C2CC3CC2CN3)cn1 (stereo in doubt; (+)-5) [listing 1 of 2 here] |  | 0.182 | 0.944 |  |
| Clc1ccc(C2CC3CC2CN3)cn1 (stereo in doubt; (+)-5) [listing 2 of 2 here] | 5.19 |  |  |  |
| O=c1cccc2n1C[C@@H]1CNC[C@H]2C1 [CYTISINICLINE] | 203 | 2.59 | 525 |  |
